Experiments:
Human HDAC4 = target: T1, Human HDAC4 (Homo sapiens, UniProt P56524); test: In vitro HDAC4 inhibition, fluorogenic peptide assay; format: biochemical; settings: for IC50: read-out: IC50 (nM) of enzyme activity HDAC4
T1 construct: Amino acids 627-1085 with N-terminal GST tag, MW=75.2 kDa; GST (N); purchased BioMol, Hamburg, Germany
Protocol: All HDAC assays were performed using acetylated AMC-labeled peptide substrate: • Substrate for isoforms HDAC1, 2, 3, 4, 5, 6, 7, 9, 10, 11 and HeLa nuclear extract assays: Acetylated fluorogenic peptide from p53 residues 379-382 (RHKKAc) (BioMol. Cat. # KI-104). • Substrate for HDAC8 assays: Acetylated fluorogenic peptide from p53 residues 379-382 (RHKAcKAc) (BioMol. Cat. # KI-178).
Enzymes: • HDAC1 assay: 75 nM Human HDAC1 (GenBank Accession No. NM_004964): Full length with C-terminal GST tag, MW=79.9 kDa, expressed by baculovirus expression system in Sf9 cells (BioMol. Cat. # SE-456). • HDAC2 assay: 5 nM Human HDAC2 (GenBank Accession No. Q92769): Full length with C-terminal His tag, MW=60 kDa, expressed by baculovirus expression system in Sf9 cells (BioMol. Cat. # SE-500). • HDAC3 assay: 2.3 nM Human HDAC3/NcoR2 (GenBank Accession No. NM_003883 for HDAC3, GenBank Accession No.NM_006312 for NcoR2): Complex of human HDAC3, full length with C-terminal His tag, MW=49.7 kDa, and human NCOR2, N-terminal GST tag, MW=39 kDa, co-expressed in baculovirus expression system (BioMol. Cat. # SE-507). • HDAC4 assay: 266 nM Human HDAC4 (GenBank Accession No. NM_006037): Amino acids 627-1085 with N-terminal GST tag, MW=75.2 kDa, expressed in baculovirus expression system (BioMol, Hamburg, Germany). • HDAC5 assay: 588 nM Human HDAC5 (GenBank Accession No. NM_001015053): Full length with Nterminal GST tag, MW=150 kDa, expressed by baculovirus expression system in Sf9 cells (BioMol, Hamburg, Germany). • HDAC6 assay: 13 nM Human HDAC6 (GenBank Accession No. BC069243): Full length with N-terminal GST tag, MW=159 kDa, expressed by baculovirus expression system in Sf9 cells (BioMol. Cat. # SE-508). • HDAC7 assay: 962 nM Human HDAC7 (GenBank Accession No. AY302468): Amino acids 518-end with N-terminal GST tag, MW=78 kDa, expressed in baculovirus expression system (BioMol, Hamburg, Germany). • HDAC8 assay: 119 nM Human HDAC8 (GenBank Accession No. NM018486): Full length, MW=42 kDa, expressed in an E. coli expression system (BioMol. […]
The reactions were carried out in a 96-well microplate for fluorometry in a 50 μl reaction volume. […] The reaction was allowed to develop for 45 minutes at 30° C. with 5% CO2; then the fluorescent signal was measured with an excitation wavelength at 360 nm and an emission wavelength at 460 nm in a microplate-reading fluorometer (GeminiXS; Molecular Devices, Sunnyvale, Calif.). […] IC50 was calculated by fitting the experimental data to a dose-response curve. […]

MCG803 = test: Cancer cell growth inhibition (CellTiter-Glo), MCG803; format: cell-based, Human; settings: Homo sapiens; Gastric Cancer, MCG803, 72 h treatment
Protocol: Cell culture-based assays were used to evaluate the ability of compounds of the invention to inhibit cancer cell growth.
Cells were obtained from the American Type Culture Collection (ATCC). Cells were cultured at 37° C. with 5% CO2 in the appropriate growth medium (see table below), and harvested respectively during the logarithmic growth period and counted with hemocytometer. The cell viability was examined by trypan blue exclusion. Cell concentrations were adjusted to 5.56×10^4 cells/ml with respective medium.
Stock solutions of test compounds and positive drugs Doxorubicin (Zhejiang, Haizheng, China), Cisplatin (Nanjing Zhiyao, China) and Mitomycin (Zhejiang, Haizheng, China) were prepared in dimethyl sulphoxide (DMSO) or PBS at 20 mM.
In order to determine the IC50 for each compound, experiments were carried out in 96-well plates and the cell lines seeded at a density of 5,000 cells/well. […] All treatments were performed in triplicate. 10 μl of drug solution was added to each well and incubated for 72 hours. At the end of the incubation, 100 μl of the CellTiter-Glo Reagent were added to each well and the contents were mixed for 2 munites on an orbital shaker to induce cell lysis. The plate was incubated at room temperature for 10 minutes to stabilize luminiscent signal, and luminiscent was recorded. […] In order to calculate IC50 values, dose-responsive curves were fitted using nonlinear regression model with a sigmoidal dose response.

T1 sequence (P56524 627-1084 limits assumed): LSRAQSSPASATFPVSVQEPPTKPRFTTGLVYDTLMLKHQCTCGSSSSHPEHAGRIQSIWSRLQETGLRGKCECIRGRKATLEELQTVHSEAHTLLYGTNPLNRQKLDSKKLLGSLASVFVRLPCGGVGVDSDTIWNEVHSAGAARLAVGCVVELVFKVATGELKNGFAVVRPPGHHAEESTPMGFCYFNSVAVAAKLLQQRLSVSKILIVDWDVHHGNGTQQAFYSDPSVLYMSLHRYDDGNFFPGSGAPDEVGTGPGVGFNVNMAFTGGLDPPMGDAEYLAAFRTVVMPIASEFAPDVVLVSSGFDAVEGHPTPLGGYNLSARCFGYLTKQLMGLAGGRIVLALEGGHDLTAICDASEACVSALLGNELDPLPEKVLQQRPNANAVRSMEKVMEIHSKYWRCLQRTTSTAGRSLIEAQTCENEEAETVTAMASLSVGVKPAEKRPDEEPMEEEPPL

| SMILES | Selectivity against HDAC6 (IC50 HDACx/IC50 HDAC6) HDAC4 (Human HDAC4; IC50 HDAC4/IC50 HDAC6) | IC50 (Human HDAC4) [nM] | IC50 (MCG803) [µM] |
| --- | --- | --- | --- |
| COc1ccc(-c2cc(-c3ccccc3)[nH]c2C(=O)NCCCCCC(=O)NO)cc1 [Compound A, N-[6-(hydroxyamino)-6-oxohexyl]-3-(4-methoxyphenyl)-5-phenyl-1H-pyrrole-2-carboxamide, reference compound] | 91.9 | 1840 | – |
| O=C(CCCCCNC(=O)c1[nH]c(-c2ccccc2)cc1-c1ccc(O)cc1)NO [Example 1, N-(6-(hydroxyamino)-6-oxohexyl)-3-(4-hydroxyphenyl)-5-phenyl-1H-pyrrole-2-carboxamide] | – | – | 1.11 |

The remaining lines, values ahead:

| Selectivity against HDAC6 (IC50 HDACx/IC50 HDAC6) HDAC4 (Human HDAC4; IC50 HDAC4/IC50 HDAC6) | IC50 (Human HDAC4) [nM] | IC50 (MCG803) [µM] | SMILES |
| --- | --- | --- | --- |
| – | – | 3.08 | O=C(CCCCCNC(=O)c1[nH]c(-c2ccc(O)cc2)cc1-c1ccccc1)NO [Example 2, N-(6-(hydroxyamino)-6-oxohexyl)-5-(4-hydroxyphenyl)-3-phenyl-1H-pyrrole-2-carboxamide] |
| – | 143 | 2.61 | O=C(CCCCCNC(=O)c1[nH]c(-c2ccc(O)cc2)cc1-c1ccoc1)NO [Example 5, 3-(3-furyl)-N-(5-(hydroxycarbamoyl)pentyl)-5-(4-hydroxy-phenyl)-1H-pyrrole-2-carboxamide] |
| – | 499 | 2.82 | O=C(CCCCCNC(=O)c1[nH]c(-c2ccc(O)cc2)cc1-c1ccsc1)NO [Example 6, N-(5-(hydroxycarbamoyl)pentyl)-5-(4-hydroxyphenyl)-3-(3-thienyl)-1H-pyrrole-2-carboxamide] |
